According to the supplement of paper PMC4862054:

Key:
Settings in all cases: incubation time: 72 h
[1] = system: BT-474; experiment: normalised response (% of control), CellTox Green; higher = less cell death (100 = DMSO, 0 = benzethonium chloride kill control)
Method in brief: (§1)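 For each plate, 0.1 % DMSO was set to 100 and a positive kill control to 0. Breast cancer cell lines (20 µl suspension) were seeded into 384-well plates already holding compound at 5 concentrations in 10-fold steps over a 10,000-fold range chosen per compound, and incubated for 72 h. CellTox Green fluorescence at 485/520 nm was read before CellTiter-Glo luminescence, which followed 10 min at room temperature. Each value is the normalised signal at one concentration.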

[2] = system: BT-549; experiment: as above
Method in brief: as §1

[3] = system: CAL-120; experiment: as above
Method in brief: as §1

[4] = system: CAL-148; experiment: as above
Method in brief: as §1

[5] = system: CAL-51; experiment: as above
Method in brief: as §1

[6] = system: CAL-85-1; experiment: as above
Method in brief: as §1

[7] = system: DU-4475; experiment: as above
Method in brief: as §1

[8] = system: HCC1143; experiment: as above
Method in brief: as §1

[9] = system: HCC1599; experiment: as above
Method in brief: as §1

[10] = system: HCC1937; experiment: as above
Method in brief: as §1

[11] = system: Hs578T; experiment: as above
Method in brief: as §1

[12] = system: MCF-10A; experiment: as above
Method in brief: as §1

[13] = system: MDA-MB-231; experiment: as above
Method in brief: as §1

[14] = system: MDA-MB-436; experiment: as above
Method in brief: as §1

[15] = system: MDA-MB-453; experiment: as above
Method in brief: as §1

[16] = system: BT-474; experiment: normalised response (% of control), CellTiter-Glo; higher = more viable cells (100 = DMSO, 0 = benzethonium chloride kill control)
Experimental: (§2)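 DSRT, 72 h incubation, CellTox Green / CellTiter-Glo readout. Signal is normalised to DMSO and benzethonium chloride controls. Value is the normalised response at the highest dose.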

[17] = system: BT-549; experiment: as above
Experimental: as §2

[18] = system: CAL-120; experiment: as above
Experimental: as §2

[19] = system: CAL-148; experiment: as above
Experimental: as §2

[20] = system: CAL-51; experiment: as above
Experimental: as §2

[21] = system: CAL-85-1; experiment: as above
Experimental: as §2

[22] = system: DU-4475; experiment: as above
Experimental: as §2

[23] = system: HCC1143; experiment: as above
Experimental: as §2

[24] = system: HCC1599; experiment: as above
Experimental: as §2

[25] = system: HCC1937; experiment: as above
Experimental: as §2

[26] = system: HDQ-P1; experiment: as above
Experimental: as §2

[27] = system: Hs578T; experiment: as above
Experimental: as §2

[28] = system: MCF-10A; experiment: as above
Experimental: as §2

[29] = system: MDA-MB-231; experiment: as above
Experimental: as §2

[30] = system: MDA-MB-436; experiment: as above
Experimental: as §2

[31] = system: MDA-MB-453; experiment: as above
Experimental: as §2

[32] = system: MDA-MB-468; experiment: as above
Experimental: as §2

[33] = system: MFM-223; experiment: as above
Experimental: as §2

[34] = system: SK-BR-3; experiment: as above
Experimental: as §2

[35] = system: HDQ-P1; experiment: normalised response (% of control), CellTox Green; higher = less cell death (100 = DMSO, 0 = benzethonium chloride kill control)
Method in brief: as §1

[36] = system: MDA-MB-468; experiment: as above
Method in brief: as §1

[37] = system: MFM-223; experiment: as above
Method in brief: as §1

[38] = system: BT-474; experiment: normalised response (% of control), CellTiter-Glo; higher = more viable cells (100 = DMSO, 0 = benzethonium chloride kill control); remark: listed apart in the source
Method in brief: as §1

[39] = system: BT-549; experiment: as above; remark: listed apart in the source
Method in brief: as §1

[40] = system: CAL-120; experiment: as above; remark: listed apart in the source
Method in brief: as §1

[41] = system: CAL-148; experiment: as above; remark: listed apart in the source
Method in brief: as §1

[42] = system: CAL-51; experiment: as above; remark: listed apart in the source
Method in brief: as §1

[43] = system: CAL-85-1; experiment: as above; remark: listed apart in the source
Method in brief: as §1

[44] = system: DU-4475; experiment: as above; remark: listed apart in the source
Method in brief: as §1

[45] = system: HCC1143; experiment: as above; remark: listed apart in the source
Method in brief: as §1

[46] = system: HCC1599; experiment: as above; remark: listed apart in the source
Method in brief: as §1

[47] = system: HCC1937; experiment: as above; remark: listed apart in the source
Method in brief: as §1

[48] = system: HDQ-P1; experiment: as above; remark: listed apart in the source
Method in brief: as §1

[49] = system: Hs578T; experiment: as above; remark: listed apart in the source
Method in brief: as §1

[50] = system: MCF-10A; experiment: as above; remark: listed apart in the source
Method in brief: as §1

[51] = system: MDA-MB-231; experiment: as above; remark: listed apart in the source
Method in brief: as §1

[52] = system: MDA-MB-436; experiment: as above; remark: listed apart in the source
Method in brief: as §1

[53] = system: MDA-MB-453; experiment: as above; remark: listed apart in the source
Method in brief: as §1

[54] = system: MDA-MB-468; experiment: as above; remark: listed apart in the source
Method in brief: as §1

[55] = system: MFM-223; experiment: as above; remark: listed apart in the source
Method in brief: as §1

[56] = system: SK-BR-3; experiment: as above; remark: listed apart in the source
Method in brief: as §1

CC(C)Cn1cnc2c(N)nc3ccccc3c21 [Imiquimod] (2500 nM)
normalised response [1]: 101%
normalised response [2]: 72.1%
normalised response [3]: 96.6%
normalised response [4]: 100%
normalised response [5]: 106%
normalised response [6]: 83.7%
normalised response [7]: 99.3%
normalised response [8]: 104%
normalised response [9]: 101%
normalised response [10]: 106%
normalised response [11]: 130%
normalised response [12]: 88.2%
normalised response [13]: 96.5%
normalised response [14]: 102%
normalised response [15]: 93.9%
normalised response [16]: 96%
normalised response [17]: 98%
normalised response [18]: 95.8%
normalised response [19]: 106%
normalised response [20]: 92.8%
normalised response [21]: 104%
normalised response [22]: 103%
normalised response [23]: 94.5%
normalised response [24]: 94.9%
normalised response [25]: 99.6%
normalised response [26]: 103%
normalised response [27]: 105%
normalised response [28]: 95%
normalised response [29]: 98.2%
normalised response [30]: 106%
normalised response [31]: 105%
normalised response [32]: 109%
normalised response [33]: 103%
normalised response [34]: 106%

C[C@@H](Oc1cc(-c2cnn(C3CCNCC3)c2)cnc1N)c1c(Cl)ccc(F)c1Cl [Crizotinib] (10 nM)
normalised response [1]: 100%
normalised response [2]: 98.6%
normalised response [3]: 107%
normalised response [4]: 102%
normalised response [5]: 84.9%
normalised response [6]: 89.3%
normalised response [7]: 103%
normalised response [8]: 89.3%
normalised response [9]: 109%
normalised response [10]: 90.5%
normalised response [35]: 96.1%
normalised response [11]: 105%
normalised response [12]: 80.3%
normalised response [13]: 88.4%
normalised response [14]: 65.4%
normalised response [15]: 105%
normalised response [36]: 230%
normalised response [37]: 105%
normalised response [38]: 102%
normalised response [39]: 96.7%
normalised response [40]: 100%
normalised response [41]: 100%
normalised response [42]: 57.6%
normalised response [43]: 93.5%
normalised response [44]: 103%
normalised response [45]: 102%
normalised response [46]: 97.4%
normalised response [47]: 98.2%
normalised response [48]: 93.6%
normalised response [49]: 99.9%
normalised response [50]: 101%
normalised response [51]: 104%
normalised response [52]: 99%
normalised response [53]: 107%
normalised response [54]: 92.7%
normalised response [55]: 99.3%
normalised response [56]: 97.3%
